Where “and” joins values, the source holds several entries; their conditions need not be identical. Identical values can stand only once.

Format in all cases: in vivo
Common to all, as to details: 20-22 d

For test [1], the system named is Polygonum convolvulus (wild buckwheat). The experiment in a line: Postemergence herbicidal activity, greenhouse, POLCO. The protocol:
(§1) Seeds of the desired test plant species were planted in Sun Gro MetroMix® 360 planting mixture, which typically has a pH of 6.0 to 6.8 and an organic matter content of about 30 percent, in plastic pots with a surface area of 103.2 square centimeters (cm^2). When required to ensure good germination and healthy plants, a fungicide treatment and/or other chemical or physical treatment was applied. The plants were grown for 7-36 days (d) in a greenhouse with an approximate 14-hour (h) photoperiod which was maintained at about 23° C. during the day and 22° C. during the night. Nutrients and water were added on a regular basis and supplemental lighting was provided with overhead metal halide 1000-Watt lamps as necessary. The plants were employed for testing when they reached the second or third true leaf stage.
(§2) Weighed amounts of technical material were dissolved in a volume of 97:3 volume per volume (v/v) acetone/dimethyl sulfoxide (DMSO) to make stock solutions. […] The concentrated stock solutions were diluted with an aqueous mixture of 1.5% v/v of Agri-dex crop oil concentrate to provide the appropriate application rates. […]
(§3) The treated plants and control plants were placed in a greenhouse as described above and watered by sub-irrigation to prevent wash-off of the test compounds. After 20-22 d, the condition of the test plants as compared with that of the control plants was determined visually and scored on a scale of 0 to 100 percent where 0 corresponds to no injury and 100 corresponds to complete kill. The condition of the test plants was compared with that of the control plants as determined visually and scored on a scale of 0 to 100 percent, where 0 corresponds to no injury and 100 corresponds to complete kill. […]
(§4) Compound 1 was formulated as an EC and was combined with phytoene desaturase inhibitor herbicides, very long chain fatty acid inhibitor herbicides, or mixtures thereof, and applied to weeds, and the phytotoxicity of the herbicidal composition was measured. […]

The test system of test [2] is Echinochloa crus-galli (barnyardgrass). The experiment in a line: Postemergence herbicidal activity, greenhouse, ECHCG. The protocol:
as §1, §2, §3, §4

The test system of test [3] is Viola tricolor (wild pansy). The experiment in a line: Postemergence herbicidal activity, greenhouse, VIOTR. The protocol:
as §1, §2, §3, §4

Test [4] relates to Stellaria media (chickweed). The experiment in a line: Postemergence herbicidal activity, greenhouse, STEME. The protocol: as §1, with “The plants were employed for testing when they reached the second or third true leaf stage.” left out
as §3

Test [5] deals with Amaranthus retroflexus (pigweed). The experiment in a line: Postemergence herbicidal activity, greenhouse, AMARE. The protocol:
as §1, §2, §3, §4

Test [6] has as its system Digitaria sanguinalis (large crabgrass). The experiment in a line: Postemergence herbicidal activity, greenhouse, DIGSA. The protocol:
as §1, with “The plants were employed for testing when they reached the second or third true leaf stage.” left out
as §3

In test [7] the test system is Chenopodium album L. (common lambsquarters). The experiment in a line: Postemergence herbicidal activity, greenhouse, CHEAL. The protocol:
as §1
(§5) Weighed amounts of technical material were dissolved in a volume of 97:3 volume per volume (v/v) acetone/dimethyl sulfoxide (DMSO) to make stock solutions. […] The concentrated stock solutions were diluted with an aqueous mixture of 1.5% v/v of Agri-dex crop oil concentrate to provide the appropriate application rates. Compound requirements are based upon a 12 milliliter (mL) application volume at a rate of 187 liters per hectare (UJha). Spray solutions of the experimental compound mixtures were prepared by adding the stock solutions to the appropriate amount of dilution solution to form a 12 mL spray solution in two-way combinations. Formulated compounds were applied to the plant material with an overhead Mandel track sprayer equipped with 8002E nozzles calibrated to deliver 187 L/ha over an application area of 0.503 square meters (m^2) at a spray height of 18 inches ([…] (cm)) above average plant canopy. Control plants were sprayed in the same manner with the solvent blank. Application rates for component (a) are in g ae/ha, and application rates for component (b) are in g ai/ha.
as §3, §4

Test [8] relates to Cirsium arvense (thistle). The experiment in a line: Postemergence herbicidal activity, greenhouse, CIRAR. The protocol: as §1, §5, §3, §4
The subject of test [9] is Triticum aestivum (winter wheat). The experiment in a line: Postemergence crop injury, greenhouse, TRZAW. The protocol: as §1, §2, §3, §4
Test [10] relates to Brassica napus (spring rape). The experiment in a line: Postemergence herbicidal activity, greenhouse, BRSNN. The protocol: as §1, §2, §3, §4
Another test deals with Zea mays (maize/corn). The experiment in a line: Postemergence crop injury, greenhouse, ZEAMX. The protocol: as §1, §2, §3, §4
Test [11] concerns Abutilon theophrasti (velvetleaf). The experiment in a line: Postemergence herbicidal activity, greenhouse, ABUTH. The protocol:
as §1, §2, §3, §4

Test [12] concerns Cyperus esculentus (nutsedge). The experiment in a line: Postemergence herbicidal activity, greenhouse, CYPES. The protocol: When required to ensure good germination and healthy plants, a fungicide treatment and/or other chemical or physical treatment was applied. The plants were grown for 7-36 days (d) in a greenhouse with an approximate 14-hour (h) photoperiod which was maintained at about 23° C. during the day and 22° C. during the night. Nutrients and water were added on a regular basis and supplemental lighting was provided with overhead metal halide 1000-Watt lamps as necessary. The plants were employed for testing when they reached the second or third true leaf stage. Weighed amounts of technical material were dissolved in a volume of 97:3 volume per volume (v/v) acetone/dimethyl sulfoxide (DMSO) to make stock solutions. […] The concentrated stock solutions were diluted with an aqueous mixture of 1.5% v/v of Agri-dex crop oil concentrate to provide the appropriate application rates. Compound requirements are based upon a 12 milliliter (mL) application volume at a rate of 187 liters per hectare (UJha). Spray solutions of the experimental compound mixtures were prepared by adding the stock solutions to the appropriate amount of dilution solution to form a 12 mL spray solution in two-way combinations. […] Control plants were sprayed in the same manner with the solvent blank. Application rates for component (a) are in g ae/ha, and application rates for component (b) are in g ai/ha. The treated plants and control plants were placed in a greenhouse as described above and watered by sub-irrigation to prevent wash-off of the test compounds. […] Colby's equation was used to determine the herbicidal effects expected from the mixtures. Compound 1 was formulated as an EC and was combined with phytoene desaturase inhibitor herbicides, very long chain fatty acid inhibitor herbicides, or mixtures thereof, and applied to weeds, and the phytotoxicity of the herbicidal composition was measured. […]

Test [13] relates to Veronica hederifolia (ivyleaf speedwell). The experiment in a line: Postemergence herbicidal activity, greenhouse, VERHE. The protocol:
as §1, with “The plants were employed for testing when they reached the second or third true leaf stage.” left out
as §3

In test [14] the test system is Sorghum vulgare (grain sorghum). The experiment in a line: Postemergence herbicidal activity, greenhouse, SORVU. The protocol:
as §1, §2, §3, §4

Test [15] concerns Ipomoea hederacea (ivyleaf morningglory). The experiment in a line: Postemergence herbicidal activity, greenhouse, IPOHE. The protocol: as §1, §2, §3, §4
The test system of test [16] is Euphorbia heterophylla (poinsettia). The experiment in a line: Postemergence herbicidal activity, greenhouse, EPHHL. The protocol:
as §1, §5
The treated plants and control plants were placed in a greenhouse as described above and watered by sub-irrigation to prevent wash-off of the test compounds. After 20-22 d, the condition of the test plants as compared with that of the control plants was determined visually and scored on a scale of 0 to 100 percent where 0 corresponds to no injury and 100 corresponds to complete kill. The condition of the test plants was compared with that of the control plants as determined visually and scored on a scale of 0 to 100 percent, where 0 corresponds to no injury and 100 corresponds to complete kill. Colby's equation was used to determine the herbicidal effects expected from the mixtures.
as §4

The next test deals with Kochia scoparia (kochia). The experiment in a line: Postemergence herbicidal activity, greenhouse, KCHSC. The protocol:
as §1, §2, §3, §4

The test system of the next test is Oryza sativa (rice). The experiment in a line: Postemergence crop injury, greenhouse, ORYSA. The protocol: as §1, with “The plants were employed for testing when they reached the second or third true leaf stage.” left out
as §3

Turning to `Nc1c(F)c(-c2ccc3cc[nH]c3c2F)nc(C(=O)O)c1Cl` [Compound 1], the “% Visual Injury” value in test [1] (5 g ae/ha) was 70%; in test [2] (5 g ae/ha), 60%; in test [3] (5 g ae/ha), 10% and 5%; in test [4] (5 g ae/ha) it was 65%; in test [5] (5 g ae/ha), 93% and 65%; in test [6] (5 g ae/ha) it was 0%. Further, the “% Visual Injury” value in test [7] (5 g ae/ha) was 90% and 80%; in test [7] (10 g ae/ha) it was 95%; in [8] (10 g ae/ha) it was 60%; in test [9] (5 g ae/ha), 10%; in test [10] (5 g ae/ha), 50%; in the test on Zea mays (maize/corn) (5 g ae/ha), 10%. Further, the “% Visual Injury” value was 50% in [11] (10 g ae/ha); 10% in test [12] (5 g ae/ha); 40% in [13] (5 g ae/ha); 60% in [14] (5 g ae/ha); 20% in test [15] (5 g ae/ha); 97% and 75% in test [16] (5 g ae/ha). For the same compound, the “% Visual Injury” value is 100% in test [16] (10 g ae/ha), 65% in the test with Kochia scoparia (kochia) (5 g ae/ha) and 0% with Oryza sativa (rice) (5 g ae/ha).
`O=C(Nc1ccc(F)cc1F)c1cccnc1Oc1cccc(C(F)(F)F)c1` [Diflufenican, N-(2,4-difluorophenyl)-2-[3-(trifluoromethyl)phenoxy]-3-pyridinecarboxamide]: the “% Visual Injury” value stood at 10% in [1] (diflufenican 50 g ai/ha); 0% in test [2] (diflufenican 50 g ai/ha); 10% in [6] (diflufenican 50 g ai/ha); 20% in test [8] (diflufenican 50 g ai/ha); 0% in [9] (diflufenican 50 g ai/ha); 20% in test [10] (diflufenican 50 g ai/ha). The “% Visual Injury” value with Zea mays (maize/corn) (diflufenican 50 g ai/ha) was found to be 5%; in [11] (diflufenican 50 g ai/ha), 0%; in test [12] (diflufenican 50 g ai/ha), 0%; in [14] (diflufenican 50 g ai/ha), 0%; in test [15] (diflufenican 50 g ai/ha), 0%; in test [16] (diflufenican 50 g ai/ha), 10%. Moreover, the figures for the “% Visual Injury” value in the test on Kochia scoparia (kochia) (diflufenican 50 g ai/ha) and in the test on Oryza sativa (rice) (diflufenican 50 g ai/ha) were 10% and 0%, respectively.
As for `CC(C)N(C(=O)COc1nnc(C(F)(F)F)s1)c1ccc(F)cc1` [Flufenacet, N-(4-fluorophenyl)-N-(1-methylethyl)-2-[[5-(trifluoromethyl)-1,3,4-thiadiazol-2-yl]oxy]acetamide], the “% Visual Injury” value was 10% in test [7] (flufenacet 60 g ai/ha), 0% in test [8] (flufenacet 60 g ai/ha), 0% in test [11] (flufenacet 60 g ai/ha) and 0% in test [16] (flufenacet 60 g ai/ha).
Regarding `O=C(Nc1ccc(F)cc1)c1cccc(Oc2cccc(C(F)(F)F)c2)n1` [Picolinafen, N-(4-fluorophenyl)-6-[3-(trifluoromethyl)phenoxy]-2-pyridinecarboxamide], the “% Visual Injury” value in [1] (picolinafen 12.5 g ai/ha) is given as 0%; in test [2] (picolinafen 12.5 g ai/ha) it was 10%; in test [3] (picolinafen 12.5 g ai/ha), 10%; in test [5] (picolinafen 12.5 g ai/ha) it was 20%; in test [8] (picolinafen 12.5 g ai/ha) it was 10%; in [9] (picolinafen 12.5 g ai/ha) it was 0%. In addition, the “% Visual Injury” value in test [10] (picolinafen 12.5 g ai/ha) is 25%; in the test with Zea mays (maize/corn) (picolinafen 12.5 g ai/ha) it was 5%; in test [12] (picolinafen 12.5 g ai/ha) it was 0%; in test [14] (picolinafen 12.5 g ai/ha), 0%; in [15] (picolinafen 12.5 g ai/ha), 5%.
For the compound `Cn1nc(C(F)(F)F)c(CS(=O)(=O)C2=NOC(C)(C)C2)c1OC(F)F` [Pyroxasulfone, 3-[[[5-(difluoromethoxy)-1-methyl-3-(trifluoromethyl)-1H-pyrazol-4-yl]methyl]sulfonyl]-4,5-dihydro-5,5-dimethylisoxazole], the “% Visual Injury” value in [3] (pyroxasulfone 100 g ai/ha) is 0%; in test [4] (pyroxasulfone 100 g ai/ha) it was 40%; in test [5] (pyroxasulfone 100 g ai/ha), 0%; in [7] (pyroxasulfone 100 g ai/ha) it was 10%; in test [13] (pyroxasulfone 100 g ai/ha) it was 0%; in [16] (pyroxasulfone 100 g ai/ha), 0%. In addition, the “% Visual Injury” value with Kochia scoparia (kochia) (pyroxasulfone 100 g ai/ha) is reported as 0%.
